In patent US7943646B2, “Benzamidine derivative, process for the preparation thereof and pharmaceutical composition comprising same” (Dong Wha Pharmaceutical Co., Ltd., priority 2006, dated 2011):

Test system: osteoclast differentiation
Experiment: Inhibitory effect on osteoclast differentiation, co-culture of bone marrow cells and osteoblast, TRAP staining
Assay type: cell-based, mouse
Details: Mus musculus, Osteoclast, 168 h, read-out: inhibitory effect on osteoclast differentiation(%)
Method: The effect of the benzamidine derivative of the present invention on osteoclast formation and differentiation process was evaluated via co-culture with an osteoblast.
Tibia was aseptically ectomized from male 6 to 8-week-old ddY mice to harvest bone marrow cells by using a syringe (21G, Korea Green Cross). The bone marrow cells were suspended in 5 mL of an α-MEM medium (Gibco BRL Co., added with sodium bicarbonate (2.0 g/L), streptomycin (100 mg/L) and penicillin ([…]), filtered and then sterilized). The harvested cells were centrifuged at 600×g for 5 mins to collect the whole quantity. To remove the red blood cells in the bone marrow cells, 3 mL of Tris HCl (0.83% NH4Cl, pH 7.5) was added and well mixed. After centrifuging above cells, the numbers of the eukaryotic cells in the harvested bone marrow cells were counted and then immediately used for a co-culture system.
The progenitor bone and the parietal bone were aseptically ectomized from 1 to 2-day-old neonate ICR mice, washed with a phosphate butter solution (PBS) and treated with a mixed enzyme solution (of 0.2% collagenase and 0.1% dispase) sequentially (10, 10, 10, 20, 20 and 20 min), and then 3 to 6 groups of the cells which comprise lot of cells having the characteristics of the osteoblast were intensively collected and washed with a medium (a serum-free α-MEM). The washed cells were cultured in the α-MEM medium containing 10% FBS for 2 to 3 days. After subculturing, the collected cells were used for this experiment, and diluted to a concentration of 1×10^6 cells/mL for storage at −70[…].
The benzamidine derivative of the present invention was dissolved in a sterile distilled water or ethanol to dilute to a desired concentration. The final volume of the sample added to the cell culture medium was set at a ratio of 1:1000.
The bone marrow cells prepared in the above 1-1 and the osteoblast were co-cultured for osteoclast differentiation. Both the bone marrow cells (25,000 cells/cm^2) and the osteoblast (10,000 cells/cm^2) were plated in a 96-well plate using α-MEM medium containing FBS, and then cultured with the samples to be tested for 7 days. Differentiation factors, such as dexamethasone (10^−7 M) and vitamin D3 (10^−8 M), were also co-added to the medium from the first day of cultivation. The medium was changed with a fresh media containing a mixture of the samples and the differentiation factors every 2 to 3 days.
TRAP was used as a marker to measure the matured osteoclast in consideration of its characteristics showing a positive reaction to a TRAP staining solution. The TRAP staining solution was prepared in such the manner that 5 mg of naphtol AS-MS phosphate (sigma N-4875) as a substrate, and 25 mg of a coloring agent (Fast Red Violet LB salt) were dissolved in N,N-dimethylformamide (about 0.5 mL). 50 ml of a 0.1 N NaHCO3 buffer solution containing 50 mM tartaric acid (pH 5.0) was added thereto, and the mixture was stored at a refrigerator prior to use as a staining solution.
After culturing the cells for 7 days, the medium was removed from the wells, the cells were once washed with PBS, and then fixed with PBS containing 10% formalin for 2 to 5 min. The cells were fixed again in a mixed solution of ethanol and acetone (1/1) for about 1 min, and dried off. The cells were further treated by the TRAP staining solution for 15 mins and washed with water and dried off. The osteoclasts with 3 or more nuclei showing a TRAP-positive reaction were counted under a microscopic examination. Each of tests was confirmed over at least three times. The inhibitory effect on osteoclast differentiation of each experimental group, relative to negative controls, was expressed as a percentage (%).

Row | SMILES | inhibition at 1 µM
1 | Cc1nc(-c2ccc(OCCCCCOc3ccc(C(=N)NO)cc3)cc2)c(CCNCCN2CCOCC2)s1 [Example 4, N-hydroxy-4-[5-(4-{2-methyl-5-[2-(2-morpholin-4-yl-ethylamino)-ethyl]-thiazol-4-yl}-phenoxy)-pentyloxy]-benzamidine] | 72.8%
2 | Cc1nc(-c2ccc(OCCCCCOc3ccc(C(=N)NO)cc3)cc2)c(CCNC(C)C)s1 [Example 6, N-hydroxy-4-(5-{4-[5-(2-isopropylamino-ethyl)-2-methyl-thiazol-4-yl]-phenoxy}-pentyloxy)-benzamidine] | 59%
3 | Cc1nc(-c2ccc(OCCCCCOc3ccc(C(=N)NO)cc3)cc2)c(CCn2ccnc2)s1 [Example 9, N-hydroxy-4-(5-{4-[5-(2-imidazol-1-yl-ethyl)-2-methyl-thiazol-4-yl]-phenoxy}-pentyloxy)-benzamidine] | 91.7%
4 | CCN(CC)CCc1sc(C)nc1-c1ccc(OCCCCCOc2ccc(C(=N)NO)cc2)cc1 [Example 11, N-hydroxy-4-(5-{4-[5-(2-diethylamino-ethyl)-2-methyl-thiazol-4-yl]-phenoxy}-pentyloxy)-benzamidine] | 70%
5 | Cc1nc(-c2ccc(OCCCCCOc3ccc(C(=N)NO)cc3)cc2)c(CCN(CCO)CCO)s1 [Example 12, N-hydroxy-4-{5-[4-(5-{2-[bis-(2-hydroxy-ethyl)-amino]-ethyl)-2-methyl-thiazol-4-yl)-phenoxy]-pentyloxy}-benzamidine] | 56%
6 | Cc1nc(-c2ccc(OCCCCCOc3ccc(C(=N)NO)cc3)cc2)c(CCN2CC(C)OC(C)C2)s1 (stereo not shown) [Example 14, N-hydroxy-4-[5-(4-{5-[2-(2,6-dimethyl-morpholin-4-yl)-ethyl]-2-methyl-thiazol-4-yl}-phenoxy)-pentyloxy]-benzamidine] | 100%
7 | N=C(NO)c1ccc(OCCCCCOc2ccc(-c3nc(N)sc3CCN3CCOCC3)cc2)cc1 [Example 16, N-hydroxy-4-(5-{4-[2-amino-5-(2-morpholin-4-yl-ethyl)-thiazol-4-yl]-phenoxy}-pentyloxy)-benzamidine] | 51%
8 | Cc1nc(-c2ccc(OCCCCCOc3ccc(C(=N)NO)cc3)cc2)c(CCNCCN(C)C)s1 [Example 17, N-hydroxy-4-[5-(4-{5-[2-(2-dimethylamino-ethylamino)-ethyl]-2-methyl-thiazol-4-yl}-phenoxy)-pentyloxy]-benzamidine] | 40%
9 | COCCN(CCOC)CCc1sc(C)nc1-c1ccc(OCCCCCOc2ccc(C(=N)NO)cc2)cc1 [Example 20, N-hydroxy-4-{5-[4-(5-{2-[bis-(2-methoxy-ethyl)-amino]-ethyl}-2-methyl-thiazol-4-yl)-phenoxy]-pentyloxy}-benzamidine] | 94%
10 | CN1CCN(CCc2sc(-c3cccnc3)nc2-c2ccc(OCCCCCOc3ccc(C(=N)NO)cc3)cc2)CC1 [Example 24, N-hydroxy-4-[5-(4-{5-[2-(4-methyl-piperazin-1-yl)-ethyl]-2-pyridine-3-yl-thiazol-4-yl}-phenoxy)-pentyloxy]-benzamidine] | 86%
11 | N=C(NO)c1ccc(OCCCCCOc2ccc(-c3nc(-c4cccnc4)sc3CCN3CCSCC3)cc2)cc1 [Example 25, N-hydroxy-4-(5-{4-[2-pyridine-3-yl-5-(2-thiomorpholin-4-yl-ethyl)-thiazol-4-yl]-phenoxy}-pentyloxy)-benzamidine] | 65%
12 | N=C(NO)c1ccc(OCCCCCOc2ccc(-c3nc(-c4cccnc4)sc3CCn3ccnc3)cc2)cc1 [Example 26, N-hydroxy-4-(5-{4-[5-(2-imidazol-1-yl-ethyl)-2-pyridine-3-yl-thiazol-4-yl]-phenoxy}-pentyloxy)-benzamidine] | 24%
13 | CC(C)c1nc(-c2ccc(OCCCCCOc3ccc(C(=N)NO)cc3)cc2)c(CCn2ccnc2)s1 [Example 29, N-hydroxy-4-(5-{4-[5-(2-imidazol-1-yl-ethyl)-2-isopropyl-thiazol-4-yl]-phenoxy}-pentyloxy)-benzamidine] | 85%
14 | CC(C)c1nc(-c2ccc(OCCCCCOc3ccc(C(=N)NO)cc3)cc2)c(CCNCCCn2ccnc2)s1 [Example 31, N-hydroxy-4-[5-(4-{5-[2-(3-imidazol-1-yl-propylamino)-ethyl]-2-isopropyl-thiazol-4-yl}-phenoxy)-pentyloxy]-benzamidine] | 97%

Same assay, conditions: Mus musculus, Osteoclast, 168 h; 1 μm; 7 days co-culture; TRAP-positive osteoclasts with 3 or more nuclei, relative to negative controls; read-out: inhibitory effect on osteoclast differentiation(%)

Row | SMILES | inhibition at 1 µM
15 | Cc1nc(-c2ccc(OCCCCCOc3ccc(C(=N)NO)cc3)cc2)c(CCN2CCCCC2)s1 [Example 3, N-hydroxy-4-(5-{4-[2-methyl-5-(2-piperidin-1-yl-ethyl)-thiazol-4-yl]-phenoxy}-pentyloxy)-benzamidine] | 90.7%
16 | Cc1nc(-c2ccc(OCCCCCOc3ccc(C(=N)NO)cc3)cc2)c(CCNCCCn2ccnc2)s1 [Example 5, N-hydroxy-4-[5-(4-{5-[2-(3-imidazol-1-yl-propylamino)-ethyl]-2-methyl-thiazol-4-yl}-phenoxy)-pentyloxy]-benzamidine] | 93.5%
17 | Cc1nc(-c2ccc(OCCCCCOc3ccc(C(=N)NO)cc3)cc2)c(CCNCCCOC(C)C)s1 [Example 7, N-hydroxy-4-[5-(4-{5-[2-(3-isopropoxy-propylamino)-ethyl]-2-methyl-thiazol-4-yl}-phenoxy)-pentyloxy]-benzamidine] | 48%
18 | Cc1nc(-c2ccc(OCCCCCOc3ccc(C(=N)NO)cc3)cc2)c(CCNC2CCCCC2)s1 [Example 10, N-hydroxy-4-(5-{4-[5-(2-cyclohexylamino-ethyl)-2-methyl-thiazol-4-yl]-phenoxy}-pentyloxy)-benzamidine] | 55%
19 | Cc1nc(-c2ccc(OCCCCCOc3ccc(C(=N)NO)cc3)cc2)c(CCN(C(C)C)C(C)C)s1 [Example 13, N-hydroxy-4-(5-{4-[5-(2-diisopropylamino-ethyl)-2-methyl-thiazol-4-yl]-phenoxy}-pentyloxy)-benzamidine] | 43%
20 | Cc1nc(-c2ccc(OCCCCCOc3ccc(C(=N)NO)cc3)cc2)c(CCN2CCSCC2)s1 [Example 15, N-hydroxy-4-(5-{4-[2-methyl-5-(2-thiomorpholin-4-yl-ethyl)-thiazol-4-yl]-phenoxy}-pentyloxy)-benzamidine] | 99%
21 | Cc1nc(-c2ccc(OCCCCCOc3ccc(C(=N)NO)cc3)cc2)c(CCNC(C)(C)C)s1 [Example 21, N-hydroxy-4-(5-{4-[5-(2-tert-butylamino-ethyl)-2-methyl-thiazol-4-yl]-phenoxy}-pentyloxy)-benzamidine] | 58%
22 | Cc1nc(-c2ccc(OCCCCCOc3ccc(C(=N)NO)cc3)cc2)c(CCNCC(C)C)s1 [Example 22, N-hydroxy-4-(5-{4-[5-(2-isobutylamino-ethyl)-2-methyl-thiazol-4-yl]-phenoxy}-pentyloxy)-benzamidine] | 61%
23 | N=C(NO)c1ccc(OCCCCCOc2ccc(-c3nc(-c4cccnc4)sc3CCN3CCOCC3)cc2)cc1 [Example 23, N-hydroxy-4-(5-{4-[5-(2-morpholin-4-yl-ethyl)-2-pyridine-3-yl-thiazol-4-yl]-phenoxy}-pentyloxy)-benzamidine] | 91%
24 | CC(C)c1nc(-c2ccc(OCCCCCOc3ccc(C(=N)NO)cc3)cc2)c(CCN2CCN(C)CC2)s1 [Example 28, N-hydroxy-4-[5-(4-{2-isopropyl-5-[2-(4-methyl-piperazin-1-yl)-ethyl]-thiazol-4-yl}-phenoxy)-pentyloxy]-benzamidine] | 90%
25 | CC(C)c1nc(-c2ccc(OCCCCCOc3ccc(C(=N)NO)cc3)cc2)c(CCNCCN2CCOCC2)s1 [Example 30, N-hydroxy-4-[5-(4-{2-isopropyl-5-[2-(2-morpholin-4-yl-ethylamino)-ethyl]-thiazol-4-yl}-phenoxy)-pentyloxy]-benzamidine] | 78%
